The test system of the assay is MLO-Y4 osteocytes. As to the kind of experiment: High-throughput drug screening of primary cilia length and incidence. It is filed as cell-based. On the procedure:
MLO-Y4 osteocytes were maintained on collagen I-coated dishes in MEMα (Life_Technologies) supplemented with 5% fetal bovine serum (FBS), 5% calf serum (CS), and 1% penicillin/streptomycin (P/S) at 37° C. and 5% CO2. Osteocytes were then seeded onto 384-well collagen-coated plates for 72 hours before fixation. […] These libraries include Tocris, Sigma LOPAC, Selleck Chemical, Prestwick, and Spectrum commercially available compound libraries. All cell seeding and plate handling was performed with the Perkin Elmer cell:explorer workstation.
Cells were fixed in 4% paraformaldehyde and permeabilized with 0.1% Triton-X 100 (Sigma). 10% goat serum (vendor) was used for blocking. Cilia were stained using a monoclonal antibody against acetylated α-tubulin (1:20) from a C3B9 hybridoma cell line, and visualized with A F488 (1:1000, ThermoFisher). Nuclei were visualized with Hoechst. Cells were imaged using a GE INCell 2000 high-throughput imager at 40× magnification. 4 fields of view were taken per well.
Each pair of nuclei and cilia images was first analyzed individually, then the entire population was examined to evaluate each compound's effect on cilia length and incidence. A custom MATLAB script was developed to perform all image analysis. This script first utilizes an enhanced implementation of a watershed transform, which is a segmentation tool which enables detection of similarly shaped overlapping particles in noisy images by the procedural whittling down of pixels found close to the edge of such particles. The augmentation of the algorithm incorporates thresholding for noise removal based on signal intensity and object size, nuclei dilation to exclude non-cellular artifacts, as well as skeletonization of cilia to quantify length. The results of the analysis are number of nuclei, number of cilia, and average cilia length in each image.
Compounds were selected based on deviation from the population mean. Each well was normalized to vehicle control images on each plate, allowing the establishment of a normalized population mean. Hits were chosen based on compounds whose triplicate mean was furthest (based on standard deviation away) from the population mean. […] Compounds were classified based on mechanism of action.
To identify compounds that modulate primary cilia formation a high-throughput platform was developed to automate cell culture, staining, imaging, and analysis, as shown in schematic form in FIG. 18. […] Cells were cultured on 384-well plates, and treated with small molecules with known biologic activity, enabling classification of mechanisms of action. Drug treatment was applied for 16 hours at 10 μM concentration, performed in triplicate, before fixation and immunostaining of primary cilia. Cells were then imaged using the GE INCell 2000 High Content Analyzer, capturing 4 fields of view per well at 40× magnification. Additionally, each plate contains 8 wells of DMSO vehicle control.
A MATLAB script was developed to detect and analyze changes in ciliogenesis. […] A representative exemplary image (FIG. 19A) is cropped to better display features, scale bar represents 30 μm. A custom MATLAB script was used to identify nuclei and cilia for analysis (FIG. 19B). […] Objects are further filtered based on size and signal intensity.
Cilia length and incidence for each field of view were normalized to vehicle control on that individual plate. This allowed development of a normalized population average and standard deviation. […] To control for toxic effects only small molecules with at least 40% viability, based on number of nuclei versus control, were selected as hits. Furthermore, compounds repeated between multiple libraries eliciting the same effect on cilia length or incidence were excluded, such that only one of the repeated compounds was selected as a hit.

Where [1] appears, read: 10 μM, 16 hours, triplicate, normalized to vehicle control, standard deviation away from the population average.

Counter-ions that a name gives are not always drawn. Like-named read-outs stand apart in the source and are kept apart here.

As to `O=C(NCCO[N+](=O)[O-])c1cccnc1` [Nicorandil (Ikorel), Nicorandil], under setting [1], the “Average Incidence SD Away” value amounted to 1.556 SD.

On to `CC[C@@]1(O)C(=O)OCc2c1cc1n(c2=O)Cc2cc3c(CN(C)C)c(O)ccc3nc2-1` [Topotecan hydrochloride hydrate], for which, under setting [1], the “Average Incidence SD Away” value stood at 2.75 SD and the “Average Length SD Away” value was 3.899 SD.

On to `COC(=O)Nc1nc2ccc([S+]([O-])c3ccccc3)cc2[nH]1` (stereo not drawn) [Oxfendazole], for which, under setting [1], the “Average Incidence SD Away” value stood at 2.268 SD and the “Average Length SD Away” value worked out at 1.574 SD.

For the compound `COc1ccccc1OCC(O)CN1CCN(CC(=O)Nc2c(C)cccc2C)CC1` (stereo not drawn) [Ranolazine (Ranexa), Ranolazine], under setting [1], the “Average Incidence SD Away” value is reported as 1.565 SD.

Consider Gabexate mesylate, for which the “Average Incidence SD Away” value under setting [1] is 1.87 SD.

For `CCCC(=O)OCOC(=O)C1=C(C)NC(C)=C(C(=O)OC)C1c1cccc(Cl)c1Cl` (stereo not drawn) [Cleviprex (Clevidipine), Clevidipine], the “Average Incidence SD Away” value under setting [1] is 1.837 SD.

In the case of `COc1ccc(C(=O)c2c(C)n(CCN3CCOCC3)c3cc(I)ccc23)cc1` [AM 630], under setting [1], the “Average Length SD Away” value is on record as 1.741 SD.

In the case of `CC(C)(C)CC(C)(C)c1ccc(OCCOCC[N+](C)(C)Cc2ccccc2)cc1` [Benzethonium chloride], the “Average Length SD Away” value was 5.179 SD.

In the case of `COc1ccc(C(=O)CC(=O)c2ccc(C(C)(C)C)cc2)cc1` [Avobenzone (Parsol 1789), Avobenzone], the “Average Incidence SD Away” value under setting [1] was 1.502 SD.

With `CC(C)NCC(O)COc1ccc(CCOCC2CC2)cc1` (stereo not drawn) [Betaxolol hydrochloride (Betoptic), Betaxolol hydrochloride], under setting [1], the “Average Incidence SD Away” value is 1.631 SD.

Regarding `CCC[S+]([O-])c1ccc2[nH]c(NC(=O)OC)nc2c1` (stereo not drawn) [Albendazole Oxide (Ricobendazole), Albendazole Oxide], under setting [1], the “Average Incidence SD Away” value was 2.017 SD.

On to `COc1cc(OC)c(C=C2C(O)=Nc3ccccc32)c(OC)c1` [IC 261], for which, under setting [1], the “Average Length SD Away” value is 1.651 SD.

On to `CN(CCOc1ccc(C[C@H](Nc2ccccc2C(=O)c2ccccc2)C(=O)O)cc1)c1ccccn1` [GW 1929], for which the “Average Length SD Away” value under setting [1] amounted to 1.65 SD.

Consider `CCN[C@H]1C[C@H](C)S(=O)(=O)c2sc(S(N)(=O)=O)cc21` [Dorzolamide HCL], for which the “Average Length SD Away” value under setting [1] was 2.205 SD.

In the case of `O=NN(CCCl)C(=O)NC1CCCCC1` [Lomustine (CeeNU), Lomustine], the “Average Incidence SD Away” value under setting [1] worked out at 2.228 SD.

Turning to `C#CCC(Cc1cnc2nc(N)nc(N)c2n1)c1ccc(C(=O)N[C@@H](CCC(=O)O)C(=O)O)cc1` (stereo partly drawn) [Pralatrexate(Folotyn), Pralatrexate], under setting [1], the “Average Incidence SD Away” value was determined as 2.193 SD and the “Average Length SD Away” value worked out at 2.105 SD.

Consider `O=C(O)/C=C/c1ccc(Cn2ccnc2)cc1` [Ozagrel HCl], for which, under setting [1], the “Average Incidence SD Away” value worked out at 1.683 SD.

As to (S)-(+)-Niguldipine hydrochloride, the “Average Length SD Away” value stood at 2.267 SD.

Regarding `Nc1nc(N)nc(-c2cc(Cl)ccc2Cl)n1` [Irsogladine], the “Average Incidence SD Away” value under setting [1] was 1.543 SD.

Consider `NC(=O)c1ncn([C@@H]2O[C@H](CO)[C@@H](O)[C@H]2O)c1N` [Acadesine], for which the “Average Incidence SD Away” value under setting [1] turned out to be 1.847 SD.

Take `COc1cc(/C=C/C(=O)N2CCC=CC2=O)cc(OC)c1OC` [Piperlongumine]: the “Average Length SD Away” value under setting [1] is recorded as 3.198 SD.

In the case of `CON` [METHOXYAMINE HYDROCHLORIDE], the “Average Length SD Away” value under setting [1] is listed as 1.91 SD.

Take `CN(C)CCOC(c1ccccc1)c1ccccc1` [Diphenhydramine HCl (Benadryl), Diphenhydramine HCl]: under setting [1], the “Average Incidence SD Away” value was 1.928 SD.

Consider `C[C@@H]1C[C@@H]([C@H](O)CC2CC(=O)NC(=O)C2)C(=O)[C@@H](C)C1` [CYCLOHEXIMIDE], for which the “Average Length SD Away” value under setting [1] was 3.609 SD.

For `C[C@]12CC[C@@H]3c4ccc(O)cc4CC[C@H]3[C@@H]1CC[C@@H]2OC(=O)CCC1CCCC1` [ESTRADIOL CYPIONATE], the “Average Length SD Away” value under setting [1] was found to be 1.56 SD.

Take `CCn1cc(C(=O)O)c(=O)c2cc(F)c(N3CCN(C)CC3)cc21` [Pefloxacin mesylate]: the “Average Incidence SD Away” value under setting [1] is recorded as 1.682 SD.

Regarding `N#C/C(=C\c1ccc(O)c(O)c1)C(=O)Nc1ccccc1` [AG 494], the “Average Length SD Away” value under setting [1] is 1.575 SD.

Turning to `CC(=O)O[C@H]1CC[C@@]2(C)[C@@H](CC[C@@H]3[C@@H]2CC(=O)[C@]2(C)[C@@H]4[C@H](C[C@@H]32)O[C@]2(CC[C@@H](C)CO2)[C@H]4C)C1` [HECOGENIN ACETATE], under setting [1], the “Average Length SD Away” value worked out at 2.21 SD.

For `CN1C(=O)COc2c(C(=O)NC3CN4CCC3CC4)cc(Cl)cc21` (stereo not drawn) [Azasetron HCl], the “Average Incidence SD Away” value under setting [1] stood at 1.653 SD.

In the case of `CC(=O)C(=Cc1ccccc1)CC(=O)O` [LEVULINIC ACID 3-BENZYLIDENYL-], under setting [1], the “Average Length SD Away” value worked out at 2.3613 SD.

As for `C=C[C@H]1C[N@@]2CC[C@H]1C[C@@H]2[C@@H](O)c1ccnc2ccc(OC)cc12` [QUINIDINE GLUCONATE], the “Average Length SD Away” value under setting [1] was determined as 1.825 SD.

For the compound `Nc1nccc(-c2ccc3noc(-c4ccc(Cl)cc4)c3c2)n1` [PIM 1 Inhibitor 2], under setting [1], the “Average Length SD Away” value was determined as 3.223 SD.

For the compound `CCCCC/N=c1\ccn(Cc2ccccc2)c2ccccc12` [CP 339818 hydrochloride], under setting [1], the “Average Length SD Away” value is recorded as 1.715 SD.

On to `Cn1c(=O)c2[nH]cnc2n(C)c1=O.Cn1c(=O)c2[nH]cnc2n(C)c1=O.NCCN` [Aminophylline ethylenediamine], for which the “Average Incidence SD Away” value under setting [1] is on record as 2.59 SD.

Regarding `CC1=C(/C=C/C(C)=C/C=C/C(C)=C/C(=O)Nc2ccc(O)cc2)C(C)(C)CCC1` [Retinoic acid p-hydroxyanilide], under setting [1], the “Average Length SD Away” value came to 2.487 SD.

On to `CCc1nc(N)nc(N)c1-c1ccc(Cl)cc1` [PYRIMETHAMINE], for which, under setting [1], the “Average Incidence SD Away” value was 1.762 SD and the “Average Length SD Away” value is reported as 3.194 SD.

For the compound `c1ccc(-c2ccc(C(c3ccccc3)n3ccnc3)cc2)cc1` (stereo not drawn) [Bifonazole], under setting [1], the “Average Incidence SD Away” value was 1.664 SD.

With `Nc1nc(N)c2nc(-c3ccccc3)c(N)nc2n1` [Triamterene], under setting [1], the “Average Length SD Away” value turned out to be 2.775 SD.

On to `COc1cc2c(cc1C(F)(F)F)N(C(=O)Nc1cc(F)cc(-c3cccnc3)c1)CC2` [SB 228357], for which, under setting [1], the “Average Length SD Away” value worked out at 2.332 SD.

Regarding `CNC(=O)c1cc(Oc2ccc(NC(=O)Nc3ccc(Cl)c(C(F)(F)F)c3)cc2)ccn1` [Sorafenib (Nexavar), Sorafenib], under setting [1], the “Average Incidence SD Away” value was found to be 1.678 SD and the “Average Length SD Away” value is given as 1.5 SD.

Consider `Cc1cc(/C=C/c2ccc3cc(N(C)C)ccc3[n+]2C)c(C)n1-c1ccccc1` [PYRVINIUM PAMOATE], for which the “Average Length SD Away” value under setting [1] came out at 2.834 SD.

Turning to `CN(Cc1cnc2nc(N)nc(N)c2n1)c1ccc(C(=O)N[C@@H](CCC(=O)O)C(=O)O)cc1` [Methotrexate], under setting [1], the “Average Incidence SD Away” value worked out at 2.424 SD and the “Average Length SD Away” value is recorded as 3.097 SD. For the same compound, the “classification as hit increasing cilia length in the screen” value (10 μM, 16 hours, hit = 1.5 standard deviation above population average, at least 40% viability) is “listed as hits”.

In the case of `O=c1[nH]c(=O)n([C@H]2C[C@H](O)[C@@H](CO)O2)cc1I` [Idoxuridin], under setting [1], the “Average Incidence SD Away” value was determined as 1.798 SD.

As for `Cc1cc(Cl)ccc1OCCCC(=O)NO` [Droxinostat], under setting [1], the “Average Incidence SD Away” value worked out at 2.26 SD and the “Average Length SD Away” value is recorded as 2.91 SD.

With `COc1cc2c(cc1OC)C1C(=O)c3c(cc4c(c3O)C=CC(C)(C)O4)OC1CO2` (stereo not drawn) [beta-TOXICAROL], under setting [1], the “Average Length SD Away” value is 1.664 SD.

As for `CC(C[N+](C)(C)C)OC(N)=O` (stereo not drawn) [Bethanechol chloride], the “Average Incidence SD Away” value under setting [1] turned out to be 1.764 SD.

Turning to `O=C1NC(=O)c2c1c1c3ccccc3[nH]c1c1[nH]c3ccccc3c21` [Arcyriaflavin A], under setting [1], the “Average Incidence SD Away” value is 1.892 SD.

In the case of `COC(=O)C1=C(C)NC(C)=C(C(=O)OC2CCCN(Cc3ccccc3)C2)C1c1cccc([N+](=O)[O-])c1` (stereo not drawn) [Benidipine hydrochloride], under setting [1], the “Average Incidence SD Away” value is 1.811 SD.

As for `CCC(C)n1ncn(-c2ccc(N3CCN(c4ccc(OCC5COC(Cn6cncn6)(c6ccc(Cl)cc6Cl)O5)cc4)CC3)cc2)c1=O` (stereo not drawn) [ITRACONAZOLE], the “Average Length SD Away” value under setting [1] is 2.154 SD.

(Values after patent publication US20190015423A1, “REGULATION OF GENE EXPRESSION BY MODULATING PRIMARY CILIA LENGTH” (THE TRUSTEES OF COLUMBIA UNIVERSITY IN THE CITY OF NEW YORK, priority 2016, published 2019).)
